This is an account of results in PMC4770715, “LIM kinase inhibitors disrupt mitotic microtubule organization and impair tumor cell proliferation” (Oncotarget, 2015).

One experiment addresses MYO3A (Homo sapiens, UniProt Q8NEV4). Kind of experiment: biochemical. Also on record: KINOMEscan active-site competition binding, percent of control (100 = no competition). As to conditions: competition binding, percent control.
In another experiment the target is LCK (Homo sapiens, UniProt P06239). In words: biochemical. Also on record: KINOMEscan active-site competition binding, percent of control (100 = no competition). The settings on record: competition binding, percent control.
The target of the next experiment is DYRK1A (Homo sapiens, UniProt Q13627). In words: biochemical. Also on record: KINOMEscan active-site competition binding, percent of control (100 = no competition). As to conditions: competition binding, percent control.
A further experiment addresses T1, TRKB (Homo sapiens, UniProt Q16620).
T1 construct: gene NTRK2
In words: biochemical. Also on record: KINOMEscan active-site competition binding, percent of control (100 = no competition). The settings on record: competition binding, percent control.

The target in a further experiment is T2, MST2 (Homo sapiens, UniProt Q13188).
T2 construct: gene STK3
Kind of experiment: biochemical. Also on record: KINOMEscan active-site competition binding, percent of control (100 = no competition). As to conditions: competition binding, percent control.

The next experiment has as its target ACVR2A (Homo sapiens, UniProt P27037). Kind of experiment: biochemical. Also on record: KINOMEscan active-site competition binding, percent of control (100 = no competition). As to conditions: competition binding, percent control.
The target in a further experiment is NEK9 (Homo sapiens, UniProt Q8TD19). Kind of experiment: biochemical. Also on record: KINOMEscan active-site competition binding, percent of control (100 = no competition). The settings on record: competition binding, percent control.
The target of a further experiment is KIT (Homo sapiens, UniProt P10721). In words: biochemical. As to conditions: competition binding, percent control. Also on record: KINOMEscan active-site competition binding, percent of control (100 = no competition).
The target of the next experiment is T3, ABL1-nonphosphorylated (Homo sapiens, UniProt P00519).
T3 construct: nonphosphorylated
In words: biochemical. The settings on record: competition binding, percent control. Also on record: KINOMEscan active-site competition binding, percent of control (100 = no competition).

A further experiment deals with TLK1 (Homo sapiens, UniProt Q9UKI8). In words: biochemical. Also on record: KINOMEscan active-site competition binding, percent of control (100 = no competition). As to conditions: competition binding, percent control.
The target in experiment [1] is T4, LIMK1 (Homo sapiens, UniProt P53667). In words: in vitro kinase enzyme assay. The experiment is classed as biochemical.
For a further experiment, the target named is LIMK2 (Homo sapiens, UniProt P53671). In words: in vitro kinase enzyme assay. The experiment is classed as biochemical.
In experiment [2] the target is T4, LIMK1. Kind of experiment: biochemical. Also on record: KINOMEscan active-site competition binding, percent of control (100 = no competition). As to conditions: competition binding, percent control.
Excerpt: Kinases inhibited >25% to 50% have yellow circles, 51% to 75% have orange circles, and >76% have red circles. In each case, the size of the circle is proportional to percentage inhibition.

Molecules are shown by their SMILES.

Sequence of LCK (P06239 whole entry): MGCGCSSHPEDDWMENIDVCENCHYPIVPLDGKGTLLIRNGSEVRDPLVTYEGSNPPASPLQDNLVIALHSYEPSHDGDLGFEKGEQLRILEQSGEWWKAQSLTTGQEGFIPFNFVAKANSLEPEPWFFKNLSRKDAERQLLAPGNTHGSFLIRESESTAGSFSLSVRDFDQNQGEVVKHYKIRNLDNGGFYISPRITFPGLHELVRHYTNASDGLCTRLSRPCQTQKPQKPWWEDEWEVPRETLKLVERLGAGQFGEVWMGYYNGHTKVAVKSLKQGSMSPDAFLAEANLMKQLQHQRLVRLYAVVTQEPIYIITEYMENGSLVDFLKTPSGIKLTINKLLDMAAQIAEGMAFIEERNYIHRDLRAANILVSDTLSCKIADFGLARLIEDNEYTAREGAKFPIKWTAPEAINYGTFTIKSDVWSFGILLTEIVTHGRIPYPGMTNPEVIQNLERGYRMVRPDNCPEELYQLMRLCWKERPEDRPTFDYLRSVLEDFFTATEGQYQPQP
T3 sequence (P00519 whole entry): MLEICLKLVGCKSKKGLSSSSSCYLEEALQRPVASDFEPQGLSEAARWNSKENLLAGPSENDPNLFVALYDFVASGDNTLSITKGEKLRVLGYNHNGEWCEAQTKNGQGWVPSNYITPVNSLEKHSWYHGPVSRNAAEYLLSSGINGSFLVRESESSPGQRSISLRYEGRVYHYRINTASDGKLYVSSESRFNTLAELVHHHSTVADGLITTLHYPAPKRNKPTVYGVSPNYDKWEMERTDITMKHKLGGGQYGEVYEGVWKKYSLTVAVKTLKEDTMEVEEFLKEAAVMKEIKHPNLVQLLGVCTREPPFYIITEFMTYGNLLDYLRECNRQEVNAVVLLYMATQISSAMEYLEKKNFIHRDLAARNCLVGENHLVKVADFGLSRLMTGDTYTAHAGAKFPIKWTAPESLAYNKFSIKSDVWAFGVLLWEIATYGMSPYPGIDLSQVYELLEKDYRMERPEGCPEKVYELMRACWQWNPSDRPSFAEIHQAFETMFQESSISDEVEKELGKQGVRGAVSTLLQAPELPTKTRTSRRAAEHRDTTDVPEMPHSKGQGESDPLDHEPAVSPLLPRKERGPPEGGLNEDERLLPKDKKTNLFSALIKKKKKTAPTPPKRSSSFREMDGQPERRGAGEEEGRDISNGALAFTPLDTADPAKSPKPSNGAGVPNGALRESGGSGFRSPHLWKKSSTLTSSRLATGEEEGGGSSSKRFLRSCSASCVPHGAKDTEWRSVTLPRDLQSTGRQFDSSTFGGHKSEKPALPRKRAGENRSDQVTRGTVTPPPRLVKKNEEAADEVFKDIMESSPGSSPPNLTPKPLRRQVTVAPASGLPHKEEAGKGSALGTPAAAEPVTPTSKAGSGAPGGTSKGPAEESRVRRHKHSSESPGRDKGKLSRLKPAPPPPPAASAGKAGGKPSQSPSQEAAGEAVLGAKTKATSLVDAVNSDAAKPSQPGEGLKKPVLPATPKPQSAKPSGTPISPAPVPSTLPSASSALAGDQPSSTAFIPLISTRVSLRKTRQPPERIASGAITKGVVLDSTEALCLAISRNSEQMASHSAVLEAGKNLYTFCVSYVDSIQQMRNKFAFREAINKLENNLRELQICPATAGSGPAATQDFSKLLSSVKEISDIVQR
Sequence of ACVR2A (P27037 whole entry): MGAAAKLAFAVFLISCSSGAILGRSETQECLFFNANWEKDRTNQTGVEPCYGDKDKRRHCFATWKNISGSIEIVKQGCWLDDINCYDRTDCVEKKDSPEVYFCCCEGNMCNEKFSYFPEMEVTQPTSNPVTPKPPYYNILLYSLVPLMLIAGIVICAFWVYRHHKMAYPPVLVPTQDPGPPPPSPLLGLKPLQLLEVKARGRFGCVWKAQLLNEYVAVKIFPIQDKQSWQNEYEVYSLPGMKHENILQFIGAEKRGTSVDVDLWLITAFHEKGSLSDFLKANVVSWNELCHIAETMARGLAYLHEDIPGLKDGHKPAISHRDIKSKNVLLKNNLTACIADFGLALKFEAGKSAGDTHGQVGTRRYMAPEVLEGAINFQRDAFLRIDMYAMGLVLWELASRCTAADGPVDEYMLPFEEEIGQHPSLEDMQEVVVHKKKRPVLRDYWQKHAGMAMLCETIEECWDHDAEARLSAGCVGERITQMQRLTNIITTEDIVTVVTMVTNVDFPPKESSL
Sequence of NEK9 (Q8TD19 whole entry): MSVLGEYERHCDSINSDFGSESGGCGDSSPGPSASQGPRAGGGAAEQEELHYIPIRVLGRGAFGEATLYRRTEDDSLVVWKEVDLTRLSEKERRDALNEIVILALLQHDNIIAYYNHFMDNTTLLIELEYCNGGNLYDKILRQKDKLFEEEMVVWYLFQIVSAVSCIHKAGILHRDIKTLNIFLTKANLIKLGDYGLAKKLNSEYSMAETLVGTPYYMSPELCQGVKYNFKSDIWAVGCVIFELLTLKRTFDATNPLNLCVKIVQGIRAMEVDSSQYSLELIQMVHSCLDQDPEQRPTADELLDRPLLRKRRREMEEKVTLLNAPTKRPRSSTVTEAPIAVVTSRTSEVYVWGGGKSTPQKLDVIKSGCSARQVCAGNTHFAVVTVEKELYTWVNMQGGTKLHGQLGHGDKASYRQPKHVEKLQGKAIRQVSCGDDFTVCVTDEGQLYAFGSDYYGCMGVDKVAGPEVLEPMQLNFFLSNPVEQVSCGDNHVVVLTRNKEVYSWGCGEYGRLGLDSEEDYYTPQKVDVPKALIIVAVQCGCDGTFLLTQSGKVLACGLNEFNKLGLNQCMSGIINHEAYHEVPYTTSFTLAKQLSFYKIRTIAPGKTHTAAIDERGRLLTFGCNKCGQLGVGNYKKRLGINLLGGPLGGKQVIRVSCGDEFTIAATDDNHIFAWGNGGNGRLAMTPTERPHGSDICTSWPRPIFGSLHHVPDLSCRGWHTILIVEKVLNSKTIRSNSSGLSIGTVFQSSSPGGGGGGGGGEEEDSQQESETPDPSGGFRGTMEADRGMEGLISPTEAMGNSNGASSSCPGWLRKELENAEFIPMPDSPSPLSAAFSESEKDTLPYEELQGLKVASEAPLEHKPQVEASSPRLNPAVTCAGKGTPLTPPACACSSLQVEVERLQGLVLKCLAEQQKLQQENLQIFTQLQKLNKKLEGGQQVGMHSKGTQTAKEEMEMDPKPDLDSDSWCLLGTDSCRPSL
T2 sequence (Q13188 whole entry): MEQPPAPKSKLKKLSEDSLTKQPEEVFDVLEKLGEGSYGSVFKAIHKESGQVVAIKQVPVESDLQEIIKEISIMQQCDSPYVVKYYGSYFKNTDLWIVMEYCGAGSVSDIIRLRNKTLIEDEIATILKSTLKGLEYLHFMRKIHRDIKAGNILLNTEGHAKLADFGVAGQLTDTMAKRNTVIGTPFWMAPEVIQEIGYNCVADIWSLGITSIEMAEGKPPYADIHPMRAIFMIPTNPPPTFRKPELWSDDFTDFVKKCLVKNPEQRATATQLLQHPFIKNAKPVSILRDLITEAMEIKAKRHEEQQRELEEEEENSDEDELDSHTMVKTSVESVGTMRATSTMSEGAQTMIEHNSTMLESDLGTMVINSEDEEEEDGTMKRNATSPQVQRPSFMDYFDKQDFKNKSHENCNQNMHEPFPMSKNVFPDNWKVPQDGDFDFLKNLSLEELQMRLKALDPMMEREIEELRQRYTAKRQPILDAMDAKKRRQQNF
Sequence of LIMK2 (P53671 whole entry): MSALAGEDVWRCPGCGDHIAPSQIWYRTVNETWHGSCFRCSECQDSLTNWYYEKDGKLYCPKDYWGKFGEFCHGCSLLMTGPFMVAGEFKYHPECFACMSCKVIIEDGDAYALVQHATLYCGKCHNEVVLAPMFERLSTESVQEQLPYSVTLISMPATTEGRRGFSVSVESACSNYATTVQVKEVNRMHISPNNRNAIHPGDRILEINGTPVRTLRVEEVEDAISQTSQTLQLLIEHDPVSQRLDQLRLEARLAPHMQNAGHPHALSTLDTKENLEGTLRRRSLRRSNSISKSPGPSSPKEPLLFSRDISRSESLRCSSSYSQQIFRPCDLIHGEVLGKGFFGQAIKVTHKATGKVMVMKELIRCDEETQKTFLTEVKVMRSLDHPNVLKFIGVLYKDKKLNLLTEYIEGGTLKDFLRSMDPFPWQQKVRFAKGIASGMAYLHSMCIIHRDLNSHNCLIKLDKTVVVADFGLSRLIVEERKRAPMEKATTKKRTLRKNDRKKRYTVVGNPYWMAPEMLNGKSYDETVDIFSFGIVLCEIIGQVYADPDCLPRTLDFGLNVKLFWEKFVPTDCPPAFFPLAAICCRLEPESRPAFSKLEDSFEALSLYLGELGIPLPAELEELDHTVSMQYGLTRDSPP
Sequence of TLK1 (Q9UKI8 whole entry): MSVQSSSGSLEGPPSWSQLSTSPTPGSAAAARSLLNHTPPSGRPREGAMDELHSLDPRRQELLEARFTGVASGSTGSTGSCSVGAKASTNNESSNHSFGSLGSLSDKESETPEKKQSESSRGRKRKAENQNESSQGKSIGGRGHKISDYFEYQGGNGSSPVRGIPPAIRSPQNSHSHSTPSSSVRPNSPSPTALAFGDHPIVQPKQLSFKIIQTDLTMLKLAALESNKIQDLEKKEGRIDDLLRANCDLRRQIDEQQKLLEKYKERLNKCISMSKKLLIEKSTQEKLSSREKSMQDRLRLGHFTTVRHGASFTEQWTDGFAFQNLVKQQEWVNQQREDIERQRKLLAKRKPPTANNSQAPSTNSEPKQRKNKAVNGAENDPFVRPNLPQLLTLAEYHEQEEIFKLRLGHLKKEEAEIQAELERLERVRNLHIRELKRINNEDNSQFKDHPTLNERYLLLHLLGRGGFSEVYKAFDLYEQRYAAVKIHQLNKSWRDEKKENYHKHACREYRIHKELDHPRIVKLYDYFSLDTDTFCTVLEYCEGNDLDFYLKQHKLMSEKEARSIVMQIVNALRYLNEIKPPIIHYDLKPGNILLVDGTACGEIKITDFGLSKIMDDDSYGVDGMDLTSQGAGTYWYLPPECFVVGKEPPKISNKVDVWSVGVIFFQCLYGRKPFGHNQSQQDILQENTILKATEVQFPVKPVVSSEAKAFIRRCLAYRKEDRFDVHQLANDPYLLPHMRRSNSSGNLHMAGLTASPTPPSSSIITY

On to `COc1ccc(-c2cnccc2-c2cnc(NC(=O)C(C)C)s2)c(C(F)(F)F)c1` [CRT0105446, N-{5-[3-(4-Methoxy-2-trifluoromethyl-phenyl)-pyridin-4-yl]-hiazol-2-yl}-isobutyramide], for which the remaining binding at 10 µM was 100% on MYO3A; 100% at LCK; 76% at DYRK1A; 99% on TRKB; 100% at MST2; 74% at ACVR2A. For the same molecule, the remaining binding at 10 µM on NEK9 turned out to be 92%; on KIT, 55%; on ABL1-nonphosphorylated, 82%; at TLK1, 100%; on LIMK1 [2], 2%. Also, the IC50 – broadly, the concentration that inhibits the measured activity by half – was 8 nM against LIMK1 [1] and 32 nM on LIMK2.
With `Cc1ccc(-c2cnccc2-c2cnc(Nc3ccc(O)cc3)s2)c(Cl)c1` [CRT0105950, 4-{5-[3-(2-Chloro-4-methyl-phenyl)-pyridin-4-yl]-thiazol-2-ylamino}-phenol], the remaining binding at 10 µM stood at 65% on MYO3A; 20% at LCK; 30% at DYRK1A; 6.4% at TRKB; 0.7% at MST2; 45% at ACVR2A. The remaining binding at 10 µM at NEK9 worked out at 96%; at KIT, 3.2%; at ABL1-nonphosphorylated it was 43%; on TLK1 it was 62%. In addition, 1 nM corresponded to half-maximal inhibition against LIMK2 (IC50).
